Data on one compound can be found in patent US20240269238A1, “Therapeutic Regimens and Methods for Reducing Body Weight in a Subject with Fatty Liver Disease using a GLP-1R and GCGR Agonist” (Spitfire Pharma LLC, priority 2022, published 2024).

The structures appear in SMILES notation.

Data set [1] is described as follows: Phase II 24-week interim analysis in non-diabetic obese and overweight subjects (NCT05295875, Example 4). The data set is classed as in vivo, human. From the text:
Results presented in this example correspond to a 24-week interim analysis obtained from a placebo-controlled phase II study (ClinicalTrials.gov Identifier: NCT05295875) evaluating pemvidutide (ALT-801) in obese and overweight subjects. It is estimated that 70 to 75% subjects of this population have NAFLD while 34% may have NASH (Quek J. et al. Global prevalence of non-alcoholic fatty liver disease and non-alcoholic steatohepatitis in the overweight and obese population: a systematic review and meta-analysis. Lancet Gastroenterol Hepatol. 2023 January; 8(1):20-30). Key eligibility criteria were: (1) Men and women, ages 18-75 years; (2) at least one unsuccessful weight loss attempt per Investigator judgement; (3) Body Mass Index (BMI) ≥30 kg/m2 or BMI ≥27 kg/m2 with at least one obesity-related comorbidity (history of cardiovascular disease, hypertension, dyslipidemia, pre-diabetes or obstructive sleep apnea) and (4) non-diabetes (HbA1c ≤6.5% and fasting glucose ≤125 mg/dL). Eligible subjects were randomized 1:1:1:1 to one of the following treatment arms: Group 1 (39 subjects): pemvidutide 1.2 mg SC once weekly for 24 weeks; Group 2 (40 subjects): pemvidutide 1.8 mg administered subcutaneously once weekly for 24 weeks; Group 3 (40 subjects): pemvidutide 0.6 mg administered subcutaneously for 1 week, 1.2 mg administered subcutaneously for 1 week, 1.8 mg administered subcutaneously once weekly for 2 weeks, followed by 2.4 mg administered subcutaneously once weekly for 20 additional weeks (in sequence) and Group 4 (41 subjects): Placebo administered subcutaneously once weekly for 24 weeks. The randomization of subjects was stratified based on sex and baseline body mass index (BMI <35 kg/m2 vs. ≥35 kg/m2). A minimum of 25% of randomized subjects were male. All subjects received counselling on a reduced-calorie diet of 1200-1500 calories for individuals <250 lbs (113.6 kg) and 1500-1800 calories for individuals ≥250 lbs (113.6 kg) and a gradual increase in physical activity (targeting 150 min of physical activity per week) by a qualified healthcare professional at screening and at subsequent visits during the treatment period. Subjects were instructed to record their food intake and physical activity daily, and compliance with lifestyle interventions will be assessed by the investigator on a regular basis. A subgroup of subjects were subjected MRI-PDFF to evaluate the hepatic fat fraction in as well as composition to measure total body adipose tissue (AT) and adipose tissue-free mass (ATFM).
FIG. 27 presents the mean percentage weight loss over time in all evaluated subjects across the three pemvidutide doses and placebo over 24 weeks. Results are presented as efficacy estimand that assumes subjects remained on treatment for the entire duration, with missing values handled by Mixed Models for Repeated Measures. […] FIG. 28 presents the mean percentage weight loss (presented as efficacy estimand as described above) that was achieved over 24 weeks with pemvidutide and placebo in a subgroup of subjects with baseline body weight ≤115 kg. […] This phenomenon may relate to a lower level of drug exposure in subjects with higher body weight, and would support the possibility to increase dose levels in this population to maximize efficacy. FIG. 29 presents a weight loss responder analysis based on calculation of percentage of subjects who respectively achieve ≥5%, ≥10% and ≥15% weight loss across the three pemvidutide doses and placebo. FIG. 30 presents the percentage weight loss achieved across the four groups comparing Hispanic versus non-Hispanic subjects. […] Waist circumference is an index of central or abdominal obesity recommended by the WHO to assess the risk of metabolic diseases such as NAFLD and NASH and cardiovascular diseases.

In data set [2] the test system is plasma lipids and lipoproteins. The data set is described as follows: Phase 1 study NCT0456124 (Example 2): lipoprotein profiling by NMR and lipidomic profiling by UHPLC-MS. The data set is classed as in vivo, human. As for the experimental part: To test the lipid-lowering effects of pemvidutide, an analysis of Phase I clinical trial (NCT0456124) data was carried out. The subjects with overweight/obesity (BMI 25-40 kg/m^2) were randomized at 1 site in Australia (NCT0456124). Subjects were randomized 4:1 pemvidutide:placebo, with placebos pooled. […] Lipoprotein and glycoprotein profiling covering 33 lipoprotein related parameters was performed by ^1H-NMR on fasting plasma samples obtained at Day −1 (baseline), Day 43, and Day 84 from the 34 subjects who completed NCT0456124. Lipidomic profiling covering 600 lipid species was performed by ultra-high performance liquid chromatography-mass spectrometry on fasting plasma samples obtained at Day −1 (baseline), Day 43, and Day 84 from the 34 subjects who completed NCT0456124. For the lipid profiling, plasma fractionation was performed either using methanol to extract fatty acyls, bile acids, steroids, and lyso-glycerophospholipids, or using a chloroform/methanol mix to extract glycerolipids, cholesteryl esters, sphingolipids, and glycerophospholipids. Lipid classification followed the classification system proposed by Fahy et al. (J. Lipid Res. 2005; 46:839-861) and the LIPID MAPS initiative (http://www.lipidmaps.org) (see FIG. 8).
The color code represents the log 2 (robust fold-change) with blue colors denoting reduced lipoproteins (negative fold-changes) and red colors denoting increased lipoproteins (positive fold-changes).
Given the observed changes in the total cholesterol, triglycerides and lipoproteins, an evaluation of the serum lipid composition covering 600 lipid species at Day −1 (baseline), Day 43, and Day 84 from the 34 subjects who completed NCT0456124 was performed. Results are presented in FIG. 10 as log 2 pairwise fold change with blue colors denoting a reduction in the lipid relative to baseline, and red an increase. The grey/black bars indicate significant p-values of Wilcoxon test.
The horizontal dashed line represents the lower limit of significance, while the vertical lines show a fold-change from baseline of ±0.75 on the log 2 scale.

With `CC[C@H](C)[C@H](NC(=O)[C@H](Cc1ccccc1)NC(=O)[C@H](CCC(=O)O)NC(=O)[C@@H]1CCCCNC(=O)CC[C@H](NC(=O)[C@H](CC(=O)O)NC(=O)[C@H](CC(C)C)NC(=O)[C@H](Cc2ccc(O)cc2)NC(=O)[C@H](CCCCN)NC(=O)[C@H](CO)NC(=O)[C@H](Cc2ccc(O)cc2)NC(=O)[C@H](CC(=O)O)NC(=O)[C@H](CO)NC(=O)[C@@H](NC(=O)[C@H](Cc2ccccc2)NC(=O)[C@@H](NC(=O)CNC(=O)[C@H](CCC(N)=O)NC(=O)C(C)(C)NC(=O)[C@@H](N)Cc2c[nH]cn2)[C@@H](C)O)[C@H](C)O)C(=O)N[C@@H](CCCCNC(=O)C2O[C@@H](OCCCCCCCCCCCCCCCCCC(=O)O)C(O)C(O)[C@@H]2O)C(=O)N[C@@H](C)C(=O)N[C@@H](C)C(=O)N1)C(=O)N[C@@H](CCC(N)=O)C(=O)N[C@@H](Cc1c[nH]c2ccccc12)C(=O)N[C@@H](CC(C)C)C(=O)N[C@@H](CC(C)C)C(=O)N[C@@H](CCC(N)=O)C(=O)N[C@H](C(N)=O)[C@@H](C)O` (some centres unmarked) [ALT-801, Pemvidutide], the heart rate entry in data set [1] (1.2, 1.8, 2.4 mg, 24-week treatment) was “do not induce a significant change in heart rates”. Also, the “systolic and diastolic blood pressure” value in data set [1] (24-week treatment) was “improves both systolic and diastolic blood pressures in a dose dependent manner”. In addition, in data set [1] (24 weeks), the “weight loss, Hispanic versus non-Hispanic subjects” value is given as “tend to lose less body weight”. For the same compound, in data set [1] (all doses, week 24), the serum lipids result is reported as “decreased as compared to baseline” and the waist circumference entry is “significant reduction in waist circumference”. The “mean percentage weight loss over time” value in data set [1] (all evaluated subjects, 1.2, 1.8, 2.4 mg, 24 weeks) is listed as “progressive, dose-dependent weight loss”. The “weight loss in subgroup vs all subjects” value in data set [1] (baseline body weight <=115 kg, 24 weeks) is given as “higher levels of weight loss”. Further, in data set [2] (1.8 mg), the “phosphatidyl-ethanolamine (PE) glycerophospholipids level” value is reported as “significantly reduced atherosclerotic plaque forming phosphatidyl-ethanolamine (PE) glycerophospholipids level” and the “pro-atherogenic lyso-PC levels” value is on record as “significantly reduced pro-atherogenic lyso-PC levels”. Further, the “number of VLDL and LDL particles and of smaller HDL particles (2D-NMR)” value in data set [2] (Day 43 and Day 84 vs Day -1) was “tend to be reduced”. For the same compound, the “serum lipid levels (glycerolipids, glycerophospholipids, sphingolipids)” value in data set [2] (within 12 weeks of treatment) is “significantly reduced serum lipid levels”.
